Reference: patent US10710997B2, “Isoquinoline amide and isoquinoline amide-substituted compounds as mGluR4 allosteric potentiators, compositions, and methods of treating neurological dysfunction” (Vanderbilt University, priority 2016, dated 2020)
pEC50: −log10 of the molar value.

Columns and labels:
mGlu4 = mGlu4 (UniProt Q14833); settings: read-out: mGlu4 PAM EC50
[1] = free drug level (fu) in rat plasma; assay type: in vitro ADME
Text: (§1) As the only drug that interact with mGlu4 is free drug, the compounds of the present invention have unexpectedly exceptional profiles as putative drug candidates.

[2] = free drug level (fu) in human plasma; assay type: in vitro ADME
Text: as §1

[3] = rat brain homogenate binding (BHB); assay type: in vitro ADME; settings: read-out: Rat BHB fu
Text: as §1

human mGluR4 = biological target: T1, human mGluR4 (Homo sapiens, UniProt Q14833); test: human mGluR4 potentiation assay, CHO cells transfected with human mGluR4, Ca2+-sensitive dye; assay type: cell-based; settings: human mGlu4; read-out: hmGlu4 EC50
T1 construct: expressed in transfected cells; host or cells: CHO cells
T1 sequence (Q14833 33-912): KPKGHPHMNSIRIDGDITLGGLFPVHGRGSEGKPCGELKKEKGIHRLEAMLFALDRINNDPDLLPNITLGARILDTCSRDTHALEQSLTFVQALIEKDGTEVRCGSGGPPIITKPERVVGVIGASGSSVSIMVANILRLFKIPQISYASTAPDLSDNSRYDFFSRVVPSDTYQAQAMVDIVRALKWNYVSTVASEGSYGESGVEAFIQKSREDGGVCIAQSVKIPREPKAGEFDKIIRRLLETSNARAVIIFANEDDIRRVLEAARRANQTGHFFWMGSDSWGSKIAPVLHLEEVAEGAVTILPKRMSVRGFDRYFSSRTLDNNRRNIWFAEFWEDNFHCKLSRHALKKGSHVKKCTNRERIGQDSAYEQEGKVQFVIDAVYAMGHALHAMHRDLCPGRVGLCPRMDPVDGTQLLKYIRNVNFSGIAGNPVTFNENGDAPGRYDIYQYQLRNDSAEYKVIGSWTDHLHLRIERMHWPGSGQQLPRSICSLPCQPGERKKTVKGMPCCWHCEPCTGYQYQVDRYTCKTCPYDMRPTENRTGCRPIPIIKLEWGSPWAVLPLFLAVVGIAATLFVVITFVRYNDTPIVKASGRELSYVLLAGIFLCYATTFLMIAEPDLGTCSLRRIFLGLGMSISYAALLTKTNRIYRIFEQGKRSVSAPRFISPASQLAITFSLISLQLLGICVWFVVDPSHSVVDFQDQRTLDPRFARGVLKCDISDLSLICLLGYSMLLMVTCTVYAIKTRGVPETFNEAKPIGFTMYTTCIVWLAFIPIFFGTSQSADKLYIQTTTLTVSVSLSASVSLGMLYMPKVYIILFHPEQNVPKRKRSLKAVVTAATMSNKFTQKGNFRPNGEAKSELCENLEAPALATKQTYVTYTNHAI
Experimental: The disclosed compounds and compositions can be evaluated for their ability to act as a potentiator of metabotropic glutamate receptor activity, in particular mGluR4 activity, by any suitable known methodology known in the art. For example, Chinese Hamster Ovary (CHO) cells transfected with human mGluR4 or HEK cells co-transfected with rat mGluR4 and the G-protein regulated Inwardly Rectifying Potassium channel (GIRK) were plated in clear bottom assay plates for assay in a Hamamatsu FDSS Fluorometric Plate Reader. The cells were loaded with either a Ca2+-sensitive fluorescent dye or the thallium responsive dye and the plates were washed and placed into a suitable kinetic plate reader. For human mGluR4 assays, a fluorescence baseline was established for 3-5 seconds, the disclosed compounds were then added to the cells, and the response in cells was measured. Approximately two and a half minutes later, a concentration of mGluR4 orthosteric agonist (e.g. glutamate or L-AP4) eliciting approximately 20% (EC20) of the maximal agonist response was added to the cells, and the response was measured. Two minutes later, a concentration of mGluR4 agonist (e.g. glutamate or L-AP4) eliciting 80% (EC80) of the maximal agonist response was added to the cells, and the response was measured. For rat mGluR4/GIRK experiments, a baseline was established for approximately five seconds, disclosed compounds were added, and either an EC20 or EC80 concentration of agonist was added approximately two and one half minutes later. Potentiation of the agonist response of mGluR4 by the disclosed compounds was observed as an increase in response to the EC20 concentration of agonist in the presence of compound compared to the response to agonist in the absence of compound. Similarly, antagonism of the agonist response of mGluR4 by the disclosed compounds was observed as a decrease in response to the EC80 concentration of agonist in the presence of compound compared to the response to agonist in the absence of compound.
The above described assay operated in two modes. In the first mode, a range of concentrations of the disclosed compounds are added to cells, followed by a single fixed concentration of agonist. If the compound acts as a potentiatior, an EC50 value for potentiation and a maximum extent of potentiation by the compound at this concentration of agonist is determined by non-linear curve fitting. If the compound acts as a noncompetitive antagonist, an IC50 value is determined by non-linear curve fitting. In the second mode, several fixed concentrations of the disclosed compounds are added to various wells on a plate, followed by a range in concentrations of agonist for each concentration of disclosed compound. The EC50 values for the agonist at each concentration of compound are determined by non-linear curve fitting. A decrease in the EC50 value of the agonist with increasing concentrations of the sample compound (a leftward shift of the agonist concentration-response curve) is an indication of the degree of mGluR4 potentiation at a given concentration of the sample compound. A decrease in the maximal response of the agonist with increasing concentrations of the sample compounds, with or without a rightward shift in agonist potency, is an indication of the degree of noncompetitive antagonism at mGluR4. The second mode also indicates whether the sample compounds also affect the maximum response to mGluR4 to agonists.

[4] = in vitro DMPK: rat intrinsic and predicted hepatic clearance; assay type: in vitro ADME; settings: for Rat CLINT: in vitro, unit assumed; for Rat CLHEP: predicted
Text: as §1

[5] = in vitro DMPK: human intrinsic and predicted hepatic clearance; assay type: in vitro ADME; settings: for Human CLINT: in vitro, unit assumed; for Human CLHEP: predicted human clearance, human hepatic blood flow 20 mL/min/kg
Text: as §1

Row | fraction unbound [1] | fraction unbound [2] | fraction unbound [3] | pEC50 (human mGluR4) | Rat CLINT [4] | Rat CLHEP [4] | Human CLINT [5] | Human CLHEP [5] | Compound | pEC50 (mGlu4)
1 | – | – | – | – | – | – | – | – | CN(C(=O)c1nccc2cc(Nc3n[nH]c4cccnc34)ccc12)C1CC(F)C1 (centres unmarked) [Compound 20] | 6.26
2 | – | – | – | – | – | – | – | – | CN(C(=O)c1nccc2cc(Nc3n[nH]c4ncccc34)ccc12)C1CC(F)C1 (centres unmarked) [Compound 22] | 5.74
3 | – | – | – | – | – | – | – | – | CN(C(=O)c1nccc2cc(Nc3n[nH]c4cccnc34)ccc12)C1CC(F)(F)C1 [Compound 23] | 6.47
4 | – | – | – | – | – | – | – | – | CN(C(=O)c1nccc2cc(Nc3n[nH]c4ncccc34)ccc12)C1CC(F)(F)C1 [Compound 24] | 5.91
5 | – | – | – | – | – | – | – | – | CN(C(=O)c1nccc2cc(Nc3n[nH]c4ncccc34)ccc12)C1CCOC1 (centres unmarked) [Compound 25] | 5.36
6 | – | – | – | – | – | – | – | – | CN(C(=O)c1nccc2cc(Nc3n[nH]c4cccnc34)ccc12)C1CCOC1 (centres unmarked) [Compound 26] | 5.73
7 | 0.158 | 0.015 | 0.05 | 6.93 | 885 mL/min/kg | 64.9 mL/min/kg | 172 mL/min/kg | 18.7 mL/min/kg | O=C(c1nccc2cc(Nc3n[nH]c4cccnc34)ccc12)N1CCCC(F)(F)C1 [Example 4] | –
8 | 0.327 | 0.094 | 0.095 | 6.44 | 32.5 mL/min/kg | 22.2 mL/min/kg | 6.91 mL/min/kg | 5.20 mL/min/kg | O=C(c1nccc2cc(Nc3n[nH]c4cccnc34)ccc12)N1CC[C@H](F)C1 [Example 5] | –
9 | 0.328 | 0.134 | 0.085 | 6.57 | 230 mL/min/kg | 53.7 mL/min/kg | 7.44 mL/min/kg | 5.49 mL/min/kg | CS(=O)(=O)N1CCN(C(=O)c2nccc3cc(Nc4n[nH]c5cccnc45)ccc23)CC1 [Example 6] | –
10 | 0.168 | 0.094 | 0.055 | 7.24 | 568 mL/min/kg | 62.3 mL/min/kg | 87.4 mL/min/kg | 16.9 mL/min/kg | O=C(c1nccc2cc(Nc3n[nH]c4cccnc34)ccc12)N1CCC(F)(F)CC1 [Example 7] | –
11 | 0.107 | 0.11 | 0.02 | 7.68 | 32.4 mL/min/kg | 22.2 mL/min/kg | 6.61 mL/min/kg | 5.03 mL/min/kg | O=C(NC1CC(F)C1)c1nccc2cc(Nc3n[nH]c4cccnc34)ccc12 (centres unmarked) [Example 8] | –
12 | 0.076 | 0.09 | 0.01 | 8.00 | 32.8 mL/min/kg | 22.3 mL/min/kg | 9.01 mL/min/kg | 6.30 mL/min/kg | O=C(NC1CC(F)(F)C1)c1nccc2cc(Nc3n[nH]c4cccnc34)ccc12 [Example 9] | –
13 | 0.089 | 0.059 | 0.082 | 7.59 | 26.7 mL/min/kg | 19.3 mL/min/kg | 10.2 mL/min/kg | 6.86 mL/min/kg | COC1CC(NC(=O)c2nccc3cc(Nc4n[nH]c5cccnc45)ccc23)C1 (centres unmarked) [Example 10] | –
14 | 0.229 | 0.188 | 0.068 | 7.22 | 2.82 mL/min/kg | 2.71 mL/min/kg | 0.63 mL/min/kg | 0.61 mL/min/kg | O=C(NC1CCOC1)c1nccc2cc(Nc3n[nH]c4cccnc34)ccc12 (centres unmarked) [Example 11] | –
15 | 0.075 | 0.073 | 0.009 | 7.25 | 37 mL/min/kg | 24.2 mL/min/kg | 7.64 mL/min/kg | 5.60 mL/min/kg | O=C(NC1CC(F)(F)C1)c1nccc2cc(Nc3n[nH]c4ncccc34)ccc12 [Example 27] | –
16 | 0.179 | 0.218 | 0.028 | 6.29 | 328 mL/min/kg | 57.7 mL/min/kg | 83.4 mL/min/kg | 16.8 mL/min/kg | O=C(c1nccc2cc(Nc3n[nH]c4ncccc34)ccc12)N1CCC(F)(F)CC1 [Example 28] | –
